± gives the uncertainty stated by the source.
Assay: xn = mol fraction of the nth substance listed
Conditions: for electrical conductivity: 101 kPa

CCCCC[n+]1ccn(C)c1.C[C@H](N)C(=O)[O-] + O
viscosity [mPa·s], 100.3 kPa
Conditions	288.15 K	293.15 K	298.15 K	303.15 K	308.15 K	313.15 K	318.15 K	323.15 K	328.15 K
x1 = 0.0003008	1.156 ± 0.016	1.015 ± 0.016	0.9 ± 0.015	0.81 ± 0.015	0.725 ± 0.015	0.661 ± 0.015	0.604 ± 0.015	0.554 ± 0.015	0.511 ± 0.015
x1 = 0.0003999	1.162 ± 0.016	1.022 ± 0.016	0.907 ± 0.015	0.813 ± 0.015	0.732 ± 0.015	0.664 ± 0.015	0.606 ± 0.015	0.556 ± 0.015	0.513 ± 0.015
x1 = 0.0005025	1.167 ± 0.016	1.027 ± 0.016	0.911 ± 0.015	0.817 ± 0.015	0.735 ± 0.015	0.666 ± 0.015	0.608 ± 0.015	0.559 ± 0.015	0.515 ± 0.015
x1 = 0.001012	1.203 ± 0.016	1.057 ± 0.016	0.937 ± 0.015	0.838 ± 0.015	0.755 ± 0.015	0.684 ± 0.015	0.626 ± 0.015	0.573 ± 0.015	0.529 ± 0.015
x1 = 0.00302	1.361 ± 0.016	1.197 ± 0.016	1.057 ± 0.016	0.939 ± 0.015	0.841 ± 0.015	0.759 ± 0.015	0.688 ± 0.015	0.629 ± 0.015	–
x1 = 0.005081	1.512 ± 0.017	1.325 ± 0.016	1.163 ± 0.016	1.027 ± 0.016	0.916 ± 0.015	0.827 ± 0.015	0.749 ± 0.015	0.685 ± 0.015	–
x1 = 0.006922	1.657 ± 0.017	1.445 ± 0.017	1.272 ± 0.016	1.118 ± 0.016	0.997 ± 0.016	0.893 ± 0.015	0.805 ± 0.015	0.736 ± 0.015	–
x1 = 0.009062	1.82 ± 0.017	1.574 ± 0.017	1.367 ± 0.016	1.208 ± 0.016	1.07 ± 0.016	0.958 ± 0.015	0.867 ± 0.015	0.781 ± 0.015	–
x1 = 0.01107	1.956 ± 0.018	1.696 ± 0.017	1.476 ± 0.017	1.3 ± 0.016	1.146 ± 0.016	1.026 ± 0.016	0.928 ± 0.015	0.831 ± 0.015	–
x1 = 0.01292	2.098 ± 0.018	1.817 ± 0.018	1.578 ± 0.017	1.378 ± 0.016	1.223 ± 0.016	1.087 ± 0.016	0.985 ± 0.016	0.887 ± 0.015	–
x1 = 0.0148	2.243 ± 0.019	1.938 ± 0.018	1.674 ± 0.017	1.467 ± 0.017	1.291 ± 0.016	1.155 ± 0.016	1.035 ± 0.016	0.931 ± 0.015	–
x1 = 0.01797	2.456 ± 0.02	2.105 ± 0.018	1.823 ± 0.018	1.596 ± 0.017	1.392 ± 0.016	1.252 ± 0.016	1.114 ± 0.016	0.999 ± 0.016	–

CCCC[n+]1ccccc1.F[B-](F)(F)F + O
101.3 kPa
Conditions	viscosity [mPa·s]
283.15 K, x2 = 0.263	84 ± 2.9
283.15 K, x2 = 0.637	15.85 ± 0.64
283.15 K, x2 = 0.724	10.78 ± 0.61
288.15 K, x2 = 0.11	153.8 ± 7
288.15 K, x2 = 0.391	35.82 ± 0.91
288.15 K, x2 = 0.637	13.01 ± 0.63
298.15 K, x2 = 0.724	6.55 ± 0.61
303.15 K, x2 = 0.11	67.1 ± 1.9
303.15 K, x2 = 0.549	11.1 ± 0.62
313.15 K, x2 = 0.549	8.32 ± 0.61
313.15 K, x2 = 0.724	4.34 ± 0.6
328.15 K, x2 = 0.11	24.88 ± 0.85
328.15 K, x2 = 0.724	3.11 ± 0.6
333.15 K, x2 = 0.414	7.99 ± 0.62
338.15 K, x2 = 0.637	3.52 ± 0.6
343.15 K, x2 = 0.11	15.89 ± 0.71
343.15 K, x2 = 0.263	9.35 ± 0.63
343.15 K, x2 = 0.391	6.91 ± 0.61
348.15 K, x2 = 0	18.45 ± 0.77

298.15 K
Conditions	electrical conductivity [S/m]
x1 = 0.000191	0.096 ± 0.02
x1 = 0.0004053	0.191 ± 0.02
x1 = 0.0005259	0.247 ± 0.02
x1 = 0.0007203	0.33 ± 0.02
x1 = 0.0008354	0.365 ± 0.02
x1 = 0.0009829	0.44 ± 0.02
x1 = 0.001125	0.486 ± 0.02
x1 = 0.001254	0.542 ± 0.02
x1 = 0.001434	0.6 ± 0.02
x1 = 0.001585	0.659 ± 0.02
x1 = 0.001811	0.743 ± 0.02
x1 = 0.001984	0.819 ± 0.02
x1 = 0.002073	0.846 ± 0.02
x1 = 0.002208	0.889 ± 0.02
x1 = 0.002434	0.962 ± 0.02
x1 = 0.002597	1.02 ± 0.02
x1 = 0.002828	1.09 ± 0.02
x1 = 0.002875	1.11 ± 0.02
x1 = 0.003074	1.17 ± 0.02
x1 = 0.003174	1.2 ± 0.02

Source: the CheMixHub ionic liquid set
